Residues, ends and D or L forms follow the SMILES beside them. *: point of attachment. X1 = CC(=O)N[C@@H]1[C@@H](O)[C@H](O[C@@H]2O[C@H](CO)[C@@H](O[C@@H]3O[C@H](CO[C@H]4O[C@H](CO)[C@@H](O)[C@H](O)[C@@H]4O[C@@H]4O[C@H](CO)[C@@H](O[C@@H]5O[C@H](CO)[C@H](O)[C@H](O)[C@H]5O)[C@H](O)[C@H]4NC(C)=O)[C@@H](O)[C@H](O[C@H]4O[C@H](CO)[C@@H](O)[C@H](O)[C@@H]4O[C@@H]4O[C@H](CO)[C@@H](O[C@@H]5O[C@H](CO)[C@H](O)[C@H](O)[C@H]5O)[C@H](O)[C@H]4NC(C)=O)[C@@H]3O)[C@H](O)[C@H]2NC(C)=O)[C@@H](CO)O[C@H]1N*; αGalNAc = CC(=O)N[C@@H]1[C@@H](O)[C@@H](O)[C@@H](CO)O[C@@H]1*
B1: sIL-6R: recombinant soluble IL-6 receptor expressed in HEK293-EBNA cells (protein, UniProt P08887 20-365, looked up)
extracellular domain: LAPRRCPAQEVARGVLTSLPGDSVTLTCPGVEPEDNATVHWVLRKPAAGSHPSRWAGMGRRLLLRSVQLHDSGNYSCYRAGRPAGTVHLLVDVPPEEPQLSCFRKSPLSNVVCEWGPRSTPSLTTKAVLLVRKFQNSPAEDFQEPCQYSQESQKFSCQLAVPEGDSSFYIVSMCVASSVGSKFSKTQTFQGCGILQPDPPANITVTAVARNPRWLSVTWQDPHSWNSSFYRLRFELRYRAERSKTFTTWMVKDLQHHCVIHDAWSGLRHVVQLRAQEEFGQGEWSEWSPEAMGTPWTESRSPPAENEVSTPMQALTTNKDDDNILFRDSANATSLPVQDSSSVPLP
modifications: extracellular domain recombinant
notes: recombinant soluble IL-6 receptor expressed in HEK293-EBNA cells

How the values were obtained:
ADAM10 / ADAM17 [1] = test: PMA-induced shedding of wild-type IL-6R in HEK293 cells after pretreatment with inhibitors GI or GW, ELISA (Fig 9B); assay type: cell-based, human; details: HEK293, wild-type IL-6R; PMA stimulation, GI or GW given as pretreatment before PMA; mean of n = 3
Experimental: (§1) Fig 9 An IL-6R devoid of all N-glycans is defective in ADAM17-mediated proteolysis. (A) PMA-mediated ectodomain shedding of IL-6R-5N with a stably transduced Ba/F3-gp130 cell line. Data shown are the mean ± SD from three independent experiments compared to wild-type IL-6R. (B) HEK293 cells were transiently transfected with a cDNA encoding wild-type IL-6R. Cells were pretreated with the ADAM10-specific inhibitor GI or the combined ADAM10/ADAM17-specific inhibitor GW for 30 min and then stimulated with 100 nM PMA for 2 h as indicated. The amount of sIL-6R in the cell supernatant was determined by ELISA. One out of three experiments with similar outcomes is shown (mean ± SD, n = 3). (C) The experiment was performed as described under (B), but sIL-6R was precipitated from cell supernatant and analyzed by western blot. Furthermore, the cells were lysed, and IL-6R expression in the lysates was also determined by western blot. β-actin served as loading control. […] (D, E) The experiment was performed as described in […], but HEK293 cells were transiently transfected with a cDNA encoding IL-6R-5N. nd, not detected. (F) Cell-surface expression of the IL-6R-5N variant on transiently transfected HEK293 cells analyzed via flow cytometry (black histogram). […] The expression of all proteins (input) and the interaction of the IL-6R variants with MPD17-CANDIS were analyzed via western blot. […]

ADAM10 / ADAM17 [2] = test: PMA-induced shedding of IL-6R-5N in HEK293 cells after pretreatment with inhibitors GI or GW, ELISA (Fig 9D); assay type: cell-based, human; details: HEK293, IL-6R-5N; PMA stimulation, GI or GW given as pretreatment before PMA; mean of n = 3
Experimental: as §1

[3] = In vitro cleavage assay of IL-6R (glyco)peptides with recombinant ADAM17; details: human, isolated enzyme; 50 μM peptide, 25 mM Hepes pH 9.0, recombinant catalytic domain of ADAM17, 16 h, 37°C, reverse phase C18 chromatography, peak areas; mean of 3 independent experiments; read-out: intact peptide after incubation with ADAM17 (untreated peptide = 100), mean
Experimental: (§2) Fig 7 The N- and O-glycosylated sequon adjacent to the cleavage site is of minor importance for IL-6R cleavage. (A) Amino-acid sequence of the two unglycosylated peptides 1(QD) and 2(QA). Peptides were incubated either with or without recombinant ADAM17 for 16 h at 37°C, and the amount of cleaved peptide was analyzed by reversed-phase (RP) chromatography. (B) Amino-acid sequence of the two glycopeptides 3(QD) and 4(QA), which have a GlcNAc attached to the amino-acid residue corresponding to Asn-350 of the IL-6R. Cleavage was determined as described in panel (A). (C) Amino-acid sequence of the two glycopeptides 5(QD) and 6(QA), which have a biantennary N-glycan attached to the amino-acid residue corresponding to Asn-350 of the IL-6R. Cleavage was determined as described in panel (A). (D) Amino-acid sequence of the two glycopeptides 7(QD) and 8(QA), which have a GalNAc attached to the amino-acid residue corresponding toThr-352 of the IL-6R. Cleavage was determined as described in panel (A). (E) Amino-acid sequence of the two glycopeptides 9(QD) and 10(QA), which have a biantennary N-glycan attached to the amino-acid residue corresponding to Asn-350 and a GalNAc attached to the amino-acid residue corresponding toThr-352 of the IL-6R. Cleavage was determined as described in panel (A). All data shown are the mean ± SD from three independent experiments (*p < 0.05, **p < 0.01, ***p < 0.001, compared to the untreated peptide; ^§p < 0.05, compared to the cleaved nonglycosylated peptide).
(§3) Two 1.5 ml reaction tubes were filled with 50 μl peptide (50 μM) solved in 25 mM Hepes (pH 9.0), and 0.5 μl of the recombinant catalytic domain of ADAM17 was added to one of the reaction tubes, whereas the other sample remained untreated. All samples were incubated for 16 h at 37°C. Afterwards, 1,150 μl 0.1% TFA was added to each sample, and the peptides were separated on a reverse phase chromatography column (Multo High Bio-200-C18) from Chromatographie Service (Langerwehe, Germany) using a linear gradient elution with a binary solvent system and a flow rate of 1 ml/min. Solvent A consisted of 0.1% TFA, and solvent B consisted of 100% ACN. After peak integration, peak areas for cleaved and noncleaved peptides were determined.

[4] = target: T1, recombinant catalytic domain of ADAM17 (Homo sapiens, UniProt P78536); test: as above; details: 50 μM peptide, 25 mM Hepes pH 9.0, 16 h, 37°C, RP chromatography
T1 construct: catalytic domain (aa Pro-18 to Val-477) of ADAM17; purchased Enzo Life Sciences GmbH (Lörrach, Germany)
T1 sequence (P78536 18-477): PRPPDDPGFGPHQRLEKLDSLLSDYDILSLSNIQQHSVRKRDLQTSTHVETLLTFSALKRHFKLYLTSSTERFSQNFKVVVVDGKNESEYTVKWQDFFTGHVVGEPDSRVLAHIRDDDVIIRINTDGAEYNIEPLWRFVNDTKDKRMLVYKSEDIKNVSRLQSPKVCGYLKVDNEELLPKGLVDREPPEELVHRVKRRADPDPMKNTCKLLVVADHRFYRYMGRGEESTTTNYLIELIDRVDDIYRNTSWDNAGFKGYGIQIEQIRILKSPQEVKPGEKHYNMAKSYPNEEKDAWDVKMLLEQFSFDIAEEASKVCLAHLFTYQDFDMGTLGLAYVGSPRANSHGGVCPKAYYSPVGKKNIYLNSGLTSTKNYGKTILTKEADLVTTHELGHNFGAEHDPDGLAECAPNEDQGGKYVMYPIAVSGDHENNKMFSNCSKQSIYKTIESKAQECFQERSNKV
Experimental: as §2, §3

Ba/F3-gp130 cells = test: Proliferation of Ba/F3-gp130 cells with 10 ng/ml IL-6 plus recombinant sIL-6R or ds-sIL-6R (IL-6 trans-signaling), Cell Titer Blue; assay type: cell-based; details: 0-100 ng/ml with 10 ng/ml IL-6, 48 h
From the text: Fig 1 The majority of sIL-6R in human serum is not generated by alternative mRNA splicing. (A) Multiple sequence alignment of amino acids Met-310 to Ala-370 of the full-length human IL-6R with the sIL-6R (Met-310 to Gln-357) and amino acids Met-310 to Leu-365 of the differentially spliced sIL-6R (ds-sIL-6R). The ten unique C-terminal amino-acid residues of the […], which represent the epitope against which the antibody ds6R was raised, are colored in green. (B, C) Proliferation assay of Ba/F3-gp130 cells in response to 10 ng/ml IL-6 and increasing amounts (0–100 ng/ml) of either (B) recombinant sIL-6R or (C) recombinant ds-sIL-6R. Cell viability was assessed after 48 h. […]
Proliferation of the different Ba/F3-gp130-IL-6R cell lines in response to IL-6 and Hyper-IL-6 and of Ba/F3-gp130 cells in response to IL-6 and the two different recombinant sIL-6R variants was determined using the Cell Titer Blue Cell viability assay reagent (Promega, Karlsruhe, Germany), following the manufacturer’s protocol as described previously. Values were measured in triplicates per experiment, and relative light units (RLU) obtained after 60 min were normalized by subtraction of control values obtained after 0 min. The maximum proliferation was set to 100%, and all other values were calculated accordingly.

Row | Molecule | sIL-6R in supernatant (ELISA), Figure 9B, mean (ADAM10 / ADAM17 [1]) | sIL-6R in supernatant (ELISA), Figure 9D, mean (ADAM10 / ADAM17 [2]) | remaining at 16 h [3] [%] | cleavage by recombinant ADAM17, in words [4] | IL-6 trans-signaling activity, in words (Ba/F3-gp130 cells)
1 | CNC(=O)[C@@H](NC(=O)[C@H](CCCc1ccccc1)[C@H](C)N(O)C=O)C(C)(C)C [GI] | 48715.8 | 0 |  |  | 
2 | CCCCCCCCCCCCCC(=O)O[C@@H]1[C@@H](C)[C@@]2(O)[C@@H](C=C(CO)C[C@]3(O)C(=O)C(C)=C[C@@H]23)[C@@H]2C(C)(C)[C@]12OC(C)=O [PMA, phorbol-12-myristate-13-acetate] | 71566.4 | 0 |  |  | 
3 | CC[C@H](C)[C@H](NC(=O)[C@@H](N)CC(N)=O)C(=O)N[C@@H](CC(C)C)C(=O)N[C@@H](Cc1ccccc1)C(=O)N[C@@H](CCCNC(=N)N)C(=O)N[C@@H](CC(=O)O)C(=O)N[C@@H](CO)C(=O)N[C@@H](C)C(=O)N[C@@H](CC(=O)N[C@@H]1O[C@H](CO)[C@@H](O[C@@H]2O[C@H](CO)[C@@H](O[C@@H]3O[C@H](CO[C@H]4O[C@H](CO)[C@@H](O)[C@H](O)[C@@H]4O[C@@H]4O[C@H](CO)[C@@H](O[C@@H]5O[C@H](CO)[C@H](O)[C@H](O)[C@H]5O)[C@H](O)[C@H]4NC(C)=O)[C@@H](O)[C@H](O[C@H]4O[C@H](CO)[C@@H](O)[C@H](O)[C@@H]4O[C@@H]4O[C@H](CO)[C@@H](O[C@@H]5O[C@H](CO)[C@H](O)[C@H](O)[C@H]5O)[C@H](O)[C@H]4NC(C)=O)[C@@H]3O)[C@H](O)[C@H]2NC(C)=O)[C@H](O)[C@H]1NC(C)=O)C(=O)N[C@@H](C)C(=O)N[C@H](C(=O)N[C@@H](CO)C(=O)N[C@@H](CC(C)C)C(=O)N1CCC[C@H]1C(=O)N[C@H](C(=O)N[C@@H](CCC(N)=O)C(=O)N[C@@H](CC(=O)O)C(=O)N[C@@H](CO)C(=O)N[C@@H](CO)C(=O)N[C@@H](CO)C(=O)N[C@H](C(=O)N1CCC[C@H]1C(=O)N[C@@H](CC(C)C)C(=O)N1CCC[C@H]1C(=O)O)C(C)C)C(C)C)[C@@H](C)O[C@H]1O[C@H](CO)[C@H](O)[C@H](O)[C@H]1NC(C)=O [9(QD)] (H-NILFRDSAD(X1)AT(αGalNAc)SLPVQDSSSVPLP-OH; N-terminus and C-terminus assumed) |  |  | 95.6 | again blocked | 
4 | CC[C@H](C)[C@H](NC(=O)[C@@H](N)CC(N)=O)C(=O)N[C@@H](CC(C)C)C(=O)N[C@@H](Cc1ccccc1)C(=O)N[C@@H](CCCNC(=N)N)C(=O)N[C@@H](CC(=O)O)C(=O)N[C@@H](CO)C(=O)N[C@@H](C)C(=O)N[C@@H](CC(=O)N[C@@H]1O[C@H](CO)[C@@H](O[C@@H]2O[C@H](CO)[C@@H](O[C@@H]3O[C@H](CO[C@H]4O[C@H](CO)[C@@H](O)[C@H](O)[C@@H]4O[C@@H]4O[C@H](CO)[C@@H](O[C@@H]5O[C@H](CO)[C@H](O)[C@H](O)[C@H]5O)[C@H](O)[C@H]4NC(C)=O)[C@@H](O)[C@H](O[C@H]4O[C@H](CO)[C@@H](O)[C@H](O)[C@@H]4O[C@@H]4O[C@H](CO)[C@@H](O[C@@H]5O[C@H](CO)[C@H](O)[C@H](O)[C@H]5O)[C@H](O)[C@H]4NC(C)=O)[C@@H]3O)[C@H](O)[C@H]2NC(C)=O)[C@H](O)[C@H]1NC(C)=O)C(=O)N[C@@H](C)C(=O)N[C@H](C(=O)N[C@@H](CO)C(=O)N[C@@H](CC(C)C)C(=O)N1CCC[C@H]1C(=O)N[C@H](C(=O)N[C@@H](CCC(N)=O)C(=O)N[C@@H](CC(=O)O)C(=O)N[C@@H](CO)C(=O)N[C@@H](CO)C(=O)N[C@@H](CO)C(=O)N[C@H](C(=O)N1CCC[C@H]1C(=O)N[C@@H](CC(C)C)C(=O)N1CCC[C@H]1C(=O)O)C(C)C)C(C)C)[C@@H](C)O [5(QD)] (H-NILFRDSAD(X1)ATSLPVQDSSSVPLP-OH; N-terminus and C-terminus assumed) |  |  | 102 | blocked cleavage | 
5 | B1 |  |  |  |  | biologically active

From PMC5218472 (PLoS Biology, 2017)
